Experimental data from patent US20260297131A1, “COMPOSITIONS AND METHODS FOR PEPTIDE-BASED MODULATORS OF HUMAN PAPILLOMAVIRUS ONCOPROTEIN E6” (priority 2023, published 2026).
“And” between values parts separate entries of the source, which are not always exact repeats. Equal entries are not always repeated. Square brackets hold non-standard residues; d marks the D form. Peptide text beside a SMILES is read from it. * marks the point of attachment. Acetyl(9-fluorenyl) = O=C(CC1c2ccccc2-c2ccccc21)*; Anthracene1carbonyl = O=C(c1cccc2cc3ccccc3cc12)*; 2Nal = N[C@@H](Cc1ccc2ccccc2c1)C(=O)O; Gly(cPent) = N[C@H](C(=O)O)C1CCCC1; 1Naphthoyl = O=C(c1cccc2ccccc12)*; Ala(cPr) = N[C@@H](CC1CC1)C(=O)O; Hyp = O=C(O)[C@@H]1C[C@@H](O)CN1; hPhe = N[C@@H](CCc1ccccc1)C(=O)O; Gly(cBu) = N[C@H](C(=O)O)C1CCC1; Aad = N[C@@H](CCCC(=O)O)C(=O)O; Cba = N[C@@H](CC1CCC1)C(=O)O; Nva = CCC[C@H](N)C(=O)O; Aib = CC(C)(N)C(=O)O; Dha = C=C(N)C(=O)O

Experiments:
[1] = target: T1, MBP-16E6 (Human papillomavirus 16, UniProt P03126, C104S/C118S/C147S/C87S); details: for Ratio to wild-type: N-terminal modified peptides, KD of WT divided by KD
[2] = target: T1, MBP-16E6; experiment: biochemical
[3] = KD in nM, N-terminal modified peptides, competition mode, N = 2 or 3, SEM of curve fitting
[4] = KD, nM, TABLE 2B, BLI competition

T1 sequence (P03126 whole entry C104S/C118S/C147S/C87S, looked up): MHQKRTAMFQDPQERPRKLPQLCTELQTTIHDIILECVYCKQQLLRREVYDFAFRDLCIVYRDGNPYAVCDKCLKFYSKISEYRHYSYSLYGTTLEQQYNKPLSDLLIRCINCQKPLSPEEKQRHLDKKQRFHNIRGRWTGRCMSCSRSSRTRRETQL

SMILES: C=C(NC(=O)[C@H](CC1CC1)NC(=O)[C@H](CCc1ccccc1)NC(=O)[C@H](CCC(=O)O)NC(=O)C(C)(C)NC(=O)[C@H](CC1CC1)NC(=O)[C@@H](NC(=O)[C@H](Cc1ccc2ccccc2c1)NC(=O)[C@@H](N)CCCC(=O)O)C1CCC1)C(=O)N[C@@H](CCC(=O)O)C(=O)N[C@@H](CCC(=O)O)C(=O)N[C@@H](CCCNC(=N)N)C(N)=O [peptide 14] (H-[Aad][2Nal][Gly(cBu)][Ala(cPr)][Aib]E[hPhe][Ala(cPr)][Dha]EER-NH2)
- lower binding affinity compared to peptide 18 ([1]; substitution Leu8Hof): 2 fold

SMILES: C=C(NC(=O)[C@H](C)NC(=O)[C@H](C)NC(=O)[C@H](CCC(=O)O)NC(=O)[C@H](CCC(N)=O)NC(=O)[C@H](C)NC(=O)[C@@H](NC(=O)[C@H](CC(C)C)NC(=O)[C@H](CCC(=O)O)NC(=O)[C@H](C)NC(=O)[C@H](CO)NC(=O)[C@H](CCC(N)=O)NC(=O)[C@@H]1CCCN1C(=O)[C@@H](NC(=O)CC1c2ccccc2-c2ccccc21)[C@@H](C)CC)[C@@H](C)O)C(=O)N[C@@H](CCCNC(=N)N)C(=O)N[C@@H](CCCNC(=N)N)C(=O)N[C@@H](CCCCN)C(=O)N[C@@H](CCCCN)C(=O)N[C@@H](CCCCNC(=O)c1cccc2cc3ccccc3cc12)C(N)=O [Peptide 13-3L3A] ({Acetyl(9-fluorenyl)}-IPQSAELTAQEAA[Dha]RRKKK(Anthracene1carbonyl)-NH2)
- KD in nM ([1]; TABLE 2C, BLI competition): n.b.
- Apparent Ki in nM ([1]; TABLE 2E, competition with immobilized 1-Biotin following 30 min incubation with 16E6): n.b.

SMILES: C=C(NC(=O)[C@H](CC(C)C)NC(=O)[C@H](CC(C)C)NC(=O)[C@H](CCCC(=O)O)NC(=O)C(C)(C)NC(=O)[C@H](CC1CC1)NC(=O)[C@@H](NC(=O)[C@H](Cc1ccc2ccccc2c1)NC(=O)[C@@H](N)CCCC(=O)O)C1CCCC1)C(=O)N[C@@H](CCC(=O)O)C(=O)N[C@@H](CCC(=O)O)C(=O)N[C@@H](CCCNC(=N)N)C(N)=O [peptide 23] (H-[Aad][2Nal][Gly(cPent)][Ala(cPr)][Aib][Aad]LL[Dha]EER-NH2)
- improved affinity compared to parent reactide ELT-DHA9G [1]: 50 fold

SMILES: CC[C@H](C)[C@H](NC(=O)CCCc1ccc2ccc3cccc4ccc1c2c34)C(=O)N1CCC[C@H]1C(=O)N[C@@H](CCC(=O)O)C(=O)N[C@@H](CO)C(=O)N[C@@H](CO)C(=O)N[C@@H](CCC(=O)O)C(=O)N[C@@H](CC(C)C)C(=O)N[C@H](C(=O)N[C@@H](CC(C)C)C(=O)N[C@@H](CCC(N)=O)C(=O)N[C@@H](CCC(=O)O)C(=O)N[C@@H](CC(C)C)C(=O)N[C@@H](CC(C)C)C(=O)NCC(=O)N[C@@H](CCC(=O)O)C(=O)N[C@@H](CCC(=O)O)C(=O)N[C@@H](CCCNC(=N)N)C(=O)N[C@@H](CCCNC(=N)N)C(N)=O)[C@@H](C)O [Peptide N18]
- Ratio to wild-type [1]: 23
- Kd [2, 3]: 106 ± 27 nM

SMILES: CC[C@H](C)[C@H](NC(=O)CC1c2ccccc2-c2ccccc21)C(=O)N1CCC[C@H]1C(=O)N[C@@H](CCC(=O)O)C(=O)N[C@@H](CO)C(=O)N[C@@H](C)C(=O)N[C@@H](CCC(=O)O)C(=O)N[C@@H](CC(C)C)C(=O)N[C@H](C(=O)N[C@@H](CC(C)C)C(=O)N[C@@H](CCC(N)=O)C(=O)N[C@@H](CCC(=O)O)C(=O)N[C@@H](CC(C)C)C(=O)N[C@@H](CC(C)C)C(=O)NCC(=O)N[C@@H](CCC(=O)O)C(=O)N[C@@H](CCC(=O)O)C(=O)N[C@@H](CCCNC(=N)N)C(=O)N[C@@H](CCCNC(=N)N)C(=O)N[C@@H](C)C(=O)N[C@@H](C)C(=O)N[C@@H](CCCCNC(=O)c1cccc2cc3ccccc3cc12)C(N)=O)[C@@H](C)O [peptide 6′] ({Acetyl(9-fluorenyl)}-IPESAELTLQELLGEERRAAK(Anthracene1carbonyl)-NH2)
- Kd ([2]; KD in nM, TABLE 2C, BLI competition): 1.4 ± 0.6 nM
- Kd [2, 4]: 2.7 ± 1.2 nM
- Kd ([2]; competition KD, BLI competition, values in text): 2.7 nM

SMILES: C=C(NC(=O)[C@H](CCC)NC(=O)[C@H](CC1CCC1)NC(=O)[C@H](CCC(=O)O)NC(=O)CNC(=O)[C@H](CCC)NC(=O)[C@@H]1C[C@@H](O)CN1C(=O)[C@H](CCC)NC(=O)[C@@H](N)CCCC(=O)O)C(=O)N[C@@H](CCC(=O)O)C(=O)N[C@@H](CCC(=O)O)C(=O)N[C@@H](CCCNC(=N)N)C(N)=O [peptide 3] (H-[Aad][Nva][Hyp][Nva]GE[Cba][Nva][Dha]EER-NH2)
- Ki [2]: 466 nM

SMILES: CC[C@H](C)[C@H](NC(=O)CC1c2ccccc2-c2ccccc21)C(=O)N1CCC[C@H]1C(=O)N[C@@H](CCC(=O)O)C(=O)N[C@@H](CO)C(=O)N[C@@H](CO)C(=O)N[C@@H](CCC(=O)O)C(=O)N[C@@H](CC(C)C)C(=O)N[C@H](C(=O)N[C@@H](CC(C)C)C(=O)N[C@@H](CCC(N)=O)C(=O)N[C@@H](CCC(=O)O)C(=O)N[C@@H](CC(C)C)C(=O)N[C@@H](CC(C)C)C(=O)NCC(=O)N[C@@H](CCC(=O)O)C(=O)N[C@@H](CCC(=O)O)C(=O)N[C@@H](CCCNC(=N)N)C(=O)N[C@@H](CCCNC(=N)N)C(=O)N[C@@H](C)C(=O)N[C@@H](C)C(=O)N[C@@H](CCCCNC(=O)c1cccc2ccccc12)C(N)=O)[C@@H](C)O [Entry 4] ({Acetyl(9-fluorenyl)}-IPESSELTLQELLGEERRAAK(1Naphthoyl)-NH2)
- Kd [2, 4]: 47 ± 7.4 nM

SMILES: CC[C@H](C)[C@H](NC(=O)c1c(F)c(F)c(F)c(F)c1F)C(=O)N1CCC[C@H]1C(=O)N[C@@H](CCC(=O)O)C(=O)N[C@@H](CO)C(=O)N[C@@H](CO)C(=O)N[C@@H](CCC(=O)O)C(=O)N[C@@H](CC(C)C)C(=O)N[C@H](C(=O)N[C@@H](CC(C)C)C(=O)N[C@@H](CCC(N)=O)C(=O)N[C@@H](CCC(=O)O)C(=O)N[C@@H](CC(C)C)C(=O)N[C@@H](CC(C)C)C(=O)NCC(=O)N[C@@H](CCC(=O)O)C(=O)N[C@@H](CCC(=O)O)C(=O)N[C@@H](CCCNC(=N)N)C(=O)N[C@@H](CCCNC(=N)N)C(N)=O)[C@@H](C)O [Peptide N16]
- Ratio to wild-type [1]: 10.7
- Kd [2, 3]: 228 ± 74 nM

SMILES: CC[C@H](C)[C@H](NC(=O)CC1c2ccccc2-c2ccccc21)C(=O)N1CCC[C@H]1C(=O)N[C@@H](CCC(=O)O)C(=O)N[C@@H](CO)C(=O)N[C@@H](CO)C(=O)N[C@@H](CCC(=O)O)C(=O)N[C@@H](CC(C)C)C(=O)N[C@H](C(=O)N[C@@H](CC(C)C)C(=O)N[C@@H](CCC(N)=O)C(=O)N[C@@H](CCC(=O)O)C(=O)N[C@@H](CC(C)C)C(=O)N[C@@H](CC(C)C)C(=O)NCC(=O)N[C@@H](CCC(=O)O)C(=O)N[C@@H](CCC(=O)O)C(=O)N[C@@H](CCCNC(=N)N)C(=O)N[C@@H](CCCNC(=N)N)C(=O)N[C@@H](C)C(=O)N[C@@H](C)C(=O)N[C@@H](CCCCNC(=O)CC1c2ccccc2-c2ccccc21)C(N)=O)[C@@H](C)O [Entry 2] ({Acetyl(9-fluorenyl)}-IPESSELTLQELLGEERRAAK(Acetyl(9-fluorenyl))-NH2)
- Kd [2, 4]: 8.6 ± 3.2 nM

SMILES: CC[C@H](C)[C@H](NC(=O)CC1c2ccccc2-c2ccccc21)C(=O)N1CCC[C@H]1C(=O)N[C@@H](CCC(=O)O)C(=O)N[C@@H](CO)C(=O)N[C@@H](CO)C(=O)N[C@@H](CCC(=O)O)C(=O)N[C@@H](CC(C)C)C(=O)N[C@H](C(=O)N[C@@H](CC(C)C)C(=O)N[C@@H](CCC(N)=O)C(=O)N[C@@H](CCC(=O)O)C(=O)N[C@@H](CC(C)C)C(=O)N[C@@H](CC(C)C)C(=O)NCC(=O)N[C@@H](CCC(=O)O)C(=O)N[C@@H](CCC(=O)O)C(=O)N[C@@H](CCCNC(=N)N)C(=O)N[C@@H](CCCNC(=N)N)C(=O)N[C@@H](C)C(=O)N[C@@H](C)C(=O)N[C@@H](CCCCNC(=O)c1cccc2cc3ccccc3cc12)C(N)=O)[C@@H](C)O [Entry 6] ({Acetyl(9-fluorenyl)}-IPESSELTLQELLGEERRAAK(Anthracene1carbonyl)-NH2)
- Kd [2, 4]: 3.7 ± 1.9 nM

SMILES: CC[C@H](C)[C@H](NC(=O)CC1c2ccccc2-c2ccccc21)C(=O)N1CCC[C@H]1C(=O)N[C@@H](CCC(=O)O)C(=O)N[C@@H](CO)C(=O)N[C@@H](C)C(=O)N[C@@H](CCC(=O)O)C(=O)N[C@@H](CC(C)C)C(=O)N[C@H](C(=O)N[C@@H](C)C(=O)N[C@@H](CCC(N)=O)C(=O)N[C@@H](CCC(=O)O)C(=O)N[C@@H](C)C(=O)N[C@@H](C)C(=O)NCC(=O)N[C@@H](CCC(=O)O)C(=O)N[C@@H](CCC(=O)O)C(=O)N[C@@H](CCCNC(=N)N)C(=O)N[C@@H](CCCNC(=N)N)C(=O)N[C@@H](C)C(=O)N[C@@H](C)C(=O)N[C@@H](CCCCNC(=O)c1cccc2cc3ccccc3cc12)C(N)=O)[C@@H](C)O [6′-3L3A] ({Acetyl(9-fluorenyl)}-IPESAELTAQEAAGEERRAAK(Anthracene1carbonyl)-NH2)
- KD, nM ([1]; TABLE 2B, BLI competition): n.b.

SMILES: CC[C@H](C)[C@H](NC(=O)C1CCc2ccccc21)C(=O)N1CCC[C@H]1C(=O)N[C@@H](CCC(=O)O)C(=O)N[C@@H](CO)C(=O)N[C@@H](CO)C(=O)N[C@@H](CCC(=O)O)C(=O)N[C@@H](CC(C)C)C(=O)N[C@H](C(=O)N[C@@H](CC(C)C)C(=O)N[C@@H](CCC(N)=O)C(=O)N[C@@H](CCC(=O)O)C(=O)N[C@@H](CC(C)C)C(=O)N[C@@H](CC(C)C)C(=O)NCC(=O)N[C@@H](CCC(=O)O)C(=O)N[C@@H](CCC(=O)O)C(=O)N[C@@H](CCCNC(=N)N)C(=O)N[C@@H](CCCNC(=N)N)C(N)=O)[C@@H](C)O (stereo partly shown) [Peptide N3]
- decrease in binding by change of terminal group ([1]; relative to fluorene-modified N1 / parent modification): ~ 42 fold

SMILES: CC[C@H](C)[C@H](N)C(=O)N1CCC[C@H]1C(=O)N[C@@H](CCC(=O)O)C(=O)N[C@@H](CO)C(=O)N[C@@H](CO)C(=O)N[C@@H](CCC(=O)O)C(=O)N[C@@H](CC(C)C)C(=O)N[C@H](C(=O)N[C@@H](CC(C)C)C(=O)N[C@@H](CCC(N)=O)C(=O)N[C@@H](CCC(=O)O)C(=O)N[C@@H](CC(C)C)C(=O)N[C@@H](CC(C)C)C(=O)NCC(=O)N[C@@H](CCC(=O)O)C(=O)N[C@@H](CCC(=O)O)C(=O)N[C@@H](CCCNC(=N)N)C(=O)N[C@@H](CCCNC(=N)N)C(N)=O)[C@@H](C)O [Peptide 1]
- Kd [2, 4]: 2450 ± 513 nM
- Kd ([2]; competition KD, BLI competition with 1-biotin, 30 nM MBP-16E6): 2300 nM and 2400 nM
